Test results: patent US4704451A, “Mitogenic peptides” (Washington University, priority 1985, dated 1987)

Legend:
[1] = system: J774 murine macrophage-like cells; assay: 3[H]-TdR incorporation in growth-arrested J774 cells; format: cell-based
Experimental: (§1) The growth stimulation of macrophage-like cells can be determined by measuring the thymidine uptake of the cells at varying concentrations of the mitogenic peptides of the present invention. This was determined for several macrophage-like cell lines including J774, P388Dl, RAW and PU5. These are well-known murine cell lines available, for example, from the American Type Culture Collection, Rockville, Md.
(§2) ^3 [H]-TdR incorporation. Various cell lines were plated in Dulbeccos's Modified Eagle Medium (DMEM) containing 10% fetal calf serum (FCS) in […] humidified atmosphere at 37° C. at an initial density of 5×10^5 per well in 24 well disposable plastic plates (Falcon, Oxnard, Calif.). Arrest of DNA synthesis (i.e., G0 /G1) was achieved by incubating the cells for 48 hours in serum-free DMEM containing 0.1% bovine serum albumin (BSA). The cells were then exposed to the peptide or to various […], or to FCS for 48 hours. Enhanced thymidine incorporation was assessed following a 2 hour pulse of N-methyl^3 [H]-TdR (1 μCi/ml). The cells were washed ×3 in PBS (phosphate buffered saline, pH 7.4) at 4, precipitated with 10% trichloroacetic acid (30 min at 4) and the insoluble material extracted ×2 with ETOH:ET2 O (3:1 v/v). The precipitate was solubilized in N NaOH and aliquots withdrawn for protein determinations using a dye-binding assay (Bio Rad Labs., Richmond, Calif.) and liquid scintillation spectrometry.
The various cell lines employed in these tests were the murine macrophage-like cell lines J774, P388D1, RAW and PU5. The various […] used in these tests were platelet-derived growth factor (PDGF), epidermal growth factor (EGF), fibroblast growth factor (FGF), and nerve growth factor (NGF). For background information on these known polypeptide growth factors, see, for example, the recent review article by Kris is et al., Biotechnology, February 1985, pp. 135-140; and the comprehensive review in Hormonal Proteins and Peptides, Ed. by Choh Hao Li, Vol. 12, "Growth Factors," Academic Press, 1984. EGF, NGF and FGF are commercially available from Biomedical Technologies, Cambridge, Mass. In a representative test, 24 hours following exposure of the growth-arrested cells to optimal concentrations of the peptide (i.e., 10^-8 M), cell numbers increased approximately two-fold from a control value of […] cells/culture well. […] The results are set forth in FIG. 2 and in Table I, below. In FIG. 2, the baseline tritiated thymidine (^3 [H]-TdR) incorporation in quiescent J774 cells was 5000 cpm±420 s.e.m. (standard error of the mean) per well. The results are expressed as the mean of triplicate determinations.

[2] = system: PU5 macrophage-like cell line; assay: 3[H]-TdR incorporation in growth-arrested PU5 cells; format: cell-based, murine; conditions: test (2), PU5, 10^-6 M (optimal concentration), mean ± s.e.m.
Experimental: as §1
(§3) ^3 [H]-TdR incorporation. Various cell lines were plated in Dulbeccos's Modified Eagle Medium (DMEM) containing 10% fetal calf serum (FCS) in […] humidified atmosphere at 37° C. at an initial density of 5×10^5 per well in 24 well disposable plastic plates (Falcon, Oxnard, Calif.). Arrest of DNA synthesis (i.e., G0 /G1) was achieved by incubating the cells for 48 hours in serum-free DMEM containing 0.1% bovine serum albumin (BSA). The cells were then exposed to the peptide or to various […], or to FCS for 48 hours. Enhanced thymidine incorporation was assessed following a 2 hour pulse of N-methyl^3 [H]-TdR (1 μCi/ml). […]
(§4) The various cell lines employed in these tests were the murine macrophage-like cell lines J774, P388D1, RAW and PU5. […] The results are expressed as the mean of triplicate determinations.

[3] = system: RAW macrophage-like cell line; assay: 3[H]-TdR incorporation in growth-arrested RAW cells; format: cell-based, murine; conditions: test (2), 10^-8 M (optimal concentration), mean ± s.e.m.
Experimental: as §1, §3, §4

[4] = system: murine macrophage-like cell lines J774, P388D1, RAW and PU5; assay: Cell number (proliferation) of growth-arrested macrophage-like cells; format: cell-based; conditions: 24 hours after exposure of growth-arrested cells to 10^-8 M (optimal concentration)
Experimental: as §2
The various cell lines employed in these tests were the murine macrophage-like cell lines J774, P388D1, RAW and PU5. The various […] used in these tests were platelet-derived growth factor (PDGF), epidermal growth factor (EGF), fibroblast growth factor (FGF), and nerve growth factor (NGF). […] The results are expressed as the mean of triplicate determinations.

[5] = system: P388D1 macrophage-like cell line; assay: 3[H]-TdR incorporation in growth-arrested P388D1 cells; format: cell-based, murine; conditions: test (2), P388D1, 10^-7 M (optimal concentration), mean ± s.e.m.
Experimental: as §1, §3, §4

macrophage-like cells = assay: Mitogenic activity for macrophage-like cells; format: cell-based
Experimental: as §1

[6] = test (1), J774, >500 ng per well (highest concentration tested), mean ± s.e.m.

nerve growth factor [NGF]
3[H]-TdR Incorporation/mg Protein (% Increase) [1, 6]: 0 ± 0.5 % Increase

H-YPPWNKNFTENDLL-OH [Peptide I, H-Tyr-Pro-Pro-Trp-Asn-Lys-Asn-Phe-Thr-Glu-Asn-Asp-Leu-Leu-OH]
3[H]-TdR Incorporation/mg Protein (% Increase) [2]: 112± 4.4 % Increase
3[H]-TdR Incorporation/mg Protein (% Increase) ([1]; test (1), J774, 10^-8 M (optimal concentration), 48 h exposure, mean ± s.e.m. of triplicate cultures): 140± 8.5 % Increase
3[H]-TdR Incorporation/mg Protein (% Increase) ([1]; test (2), J774, 10^-8 M (optimal concentration), mean ± s.e.m.): 190± 12 % Increase
3[H]-TdR Incorporation/mg Protein (% Increase) [3]: 276± 18 % Increase
increase of cell numbers over control [4]: approximately two-fold
3[H]-TdR Incorporation/mg Protein (% Increase) [5]: 226± 22 % Increase

H-TENDLL-OH [Peptide III, H-Thr-Glu-Asn-Asp-Leu-Leu-OH]
mitogenic activity for macrophage-like cells (macrophage-like cells): inactive

H-NKNFTENDLL-OH [Peptide IV, H-Asn-Lys-Asn-Phe-Thr-Glu-Asn-Asp-Leu-Leu-OH]
mitogenic activity for macrophage-like cells (macrophage-like cells): inactive

platelet-derived growth factor [PDGF]
3[H]-TdR Incorporation/mg Protein (% Increase) [1, 6]: 9.4 ± 0.3 % Increase

fibroblast growth factor [FGF]
3[H]-TdR Incorporation/mg Protein (% Increase) [1, 6]: 0 ± 0.4 % Increase

epidermal growth factor [EGF]
3[H]-TdR Incorporation/mg Protein (% Increase) [1, 6]: 5.2 ± 0.2 % Increase
